Results taken from patent US20250114313A1, “OLIGO-BENZAMIDE ANALOGS AND THEIR USE IN CANCER TREATMENT” (BOARD OF REGENTS, THE UNIVERSITY OF TEXAS SYSTEM, priority 2022, published 2025).

System: p-PERK, IRE1α, eIF2α, CHOP in TNBC cells
Test: Western blotting of UPR proteins, TNBC cells
Format: cell-based, Human
Details: 1 μM
Experimental: Western blotting: Whole cell lysates from breast cancer cells were prepared with 2× sample buffer (60 mM Tris-HCl, pH 6.8, 2% sodium dodecyl sulfate, 10% glycerol), and before loading mixed with loading buffer (5% 2-mercaptoethanol, 0.1% bromophenol blue) and boiled for denaturation, as previously described.^33 Proteins were separated by SDS-PAGE and subjected to Western analysis using antibodies. To detect nascent translated proteins, puromycin (final concentration 10 μg/mL) was added into cell plates 30 minutes before harvesting cells. Then samples were subjected to the Western blotting. Nascent proteins were detected by anti-puromycin antibody.

## CC(C)COc1cc(C(=O)Nc2ccc(C(=O)N[C@H]3CC[C@H](C)CC3)cc2OCC(C)C)ccc1NC(=O)c1ccc([N+](=O)[O-])c(OCCO)c1 [ERX-41]
p-PERK, IRE1α, eIF2α, CHOP
  induction of ER stress / UPR proteins: induces ER stress and downstream UPR pathways
western
  PERK activation and peIF2α, parental SUM-159: activates PERK
